{
  "source": "paper PMC12169608",
  "about": "“Peptidomimetic Phenoxymethyl Ketone Warheads as Potent Dual-Mode Inhibitors against SARS-CoV‑2 M^pro and Cathepsin” (Journal of Medicinal Chemistry, 2025)",
  "key": {"SARS-CoV-2": {"tested_on": "SARS-CoV-2", "assay": "microbe, parasite or virus in culture", "format": "cell-based"}, "physchem": {"assay": "physchem", "conditions": "pH 7.4"}, "[1]": {"biological_target": "human cathepsin B (hCTSB) (Homo sapiens, UniProt P07858)", "assay": "hCTSB biochemical assay"}, "thrombin": {"biological_target": "T1, thrombin (Homo sapiens, UniProt P00734)", "T1 construct": "preincubated with thrombin (10 nM, Sigma); purchased Sigma-Aldrich", "assay": "Protease panel: thrombin", "format": "biochemical"}, "[2]": {"biological_target": "mouse cathepsin B (mCTSB) (Mus musculus, UniProt P10605)", "sequence (P10605 80-339)": "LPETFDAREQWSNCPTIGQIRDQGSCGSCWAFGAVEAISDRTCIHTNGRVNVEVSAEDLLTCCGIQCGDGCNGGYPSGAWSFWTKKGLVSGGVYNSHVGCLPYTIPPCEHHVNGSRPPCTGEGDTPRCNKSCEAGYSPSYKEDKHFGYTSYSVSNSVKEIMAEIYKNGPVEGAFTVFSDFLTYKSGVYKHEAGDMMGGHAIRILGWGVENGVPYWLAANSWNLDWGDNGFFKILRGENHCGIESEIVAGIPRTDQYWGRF", "assay": "mCTSB biochemical assay", "conditions": "read-out: pIC50 (mouse CTSB) (converted)"}, "[3]": {"biological_target": "mouse cathepsin L (mCTSL) (Mus musculus, UniProt P06797)", "sequence (P06797 114-334)": "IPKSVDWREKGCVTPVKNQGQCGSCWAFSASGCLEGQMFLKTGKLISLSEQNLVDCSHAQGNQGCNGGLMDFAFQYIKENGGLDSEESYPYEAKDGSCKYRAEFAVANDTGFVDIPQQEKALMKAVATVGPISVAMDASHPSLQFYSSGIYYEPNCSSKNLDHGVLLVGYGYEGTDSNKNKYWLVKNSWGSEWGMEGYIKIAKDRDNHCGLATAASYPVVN", "assay": "mCTSL biochemical assay", "conditions": "read-out: pIC50 (mouse CTSL) (converted)"}, "Cathepsin D": {"biological_target": "T2, Cathepsin D (Homo sapiens, UniProt P07339)", "T2 construct": "Human liver; tissue Eurofins Discovery (assay service); host or cells: human liver", "T2 sequence (P07339 65-412)": "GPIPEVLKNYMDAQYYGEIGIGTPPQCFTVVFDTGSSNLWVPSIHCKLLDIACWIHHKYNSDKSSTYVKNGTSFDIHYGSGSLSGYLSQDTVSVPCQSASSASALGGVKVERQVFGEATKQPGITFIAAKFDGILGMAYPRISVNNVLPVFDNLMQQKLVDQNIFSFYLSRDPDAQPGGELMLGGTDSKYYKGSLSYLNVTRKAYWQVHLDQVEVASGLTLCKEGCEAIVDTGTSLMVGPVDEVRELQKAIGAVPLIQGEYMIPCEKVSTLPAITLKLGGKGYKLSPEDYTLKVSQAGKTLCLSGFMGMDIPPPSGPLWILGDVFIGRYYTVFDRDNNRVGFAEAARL", "assay": "Protease panel: Cathepsin D", "format": "biochemical"}, "[4]": {"conditions": "microsomes, 10 µM, pH 7.4"}, "SARS-CoV-2 M^pro": {"biological_target": "SARS-CoV-2 M^pro (Severe acute respiratory syndrome coronavirus 2, UniProt P0DTD1)", "assay": "biochemical", "format": "biochemical", "conditions": "read-out: M^pro biochemical assay pIC50 (converted)"}, "MERS-CoV": {"tested_on": "MERS-CoV", "assay": "microbe, parasite or virus in culture", "format": "cell-based", "conditions": "Middle East respiratory syndrome-related coronavirus, Huh-7, read-out: pEC50 (MERS-CoV CPE reduction assay) (converted)"}, "[5]": {"assay": "Mouse liver microsomal stability", "conditions": "microsomes, pH 7.4"}, "SARS-CoV": {"tested_on": "SARS-CoV", "assay": "microbe, parasite or virus in culture", "format": "cell-based", "conditions": "Severe acute respiratory syndrome coronavirus, read-out: pEC50 (SARS-CoV CPE reduction assay) (converted)"}, "in vitro": {"assay": "in vitro", "conditions": "mouse, microsomes, pH 7.4"}, "[6]": {"conditions": "Severe acute respiratory syndrome coronavirus 2, Vero C1008, read-out: SARS-CoV-2 CPE reduction assay pEC50 (converted)"}},
  "note": "Where two headings read alike, the source gives them in different places.",
  "data": [
    {"smiles": "CC(C)(O)c1c(F)c(F)c(OCC(=O)[C@H](C[C@@H]2CCNC2=O)NC(=O)[C@@H]2[C@@H]3[C@H](CN2C(=O)[C@@H](NC(=O)C(F)(F)F)C(C)(C)C)C3(C)C)c(F)c1F", "note": "[compound 14, (1R,2S,5S)-3-((S)-3,3-Dimethyl-2-(2,2,2-trifluoroacetamido)butanoyl)-6,6-dimethyl-N-((S)-3-oxo-1-((S)-2-oxopyrrolidin-3-yl)-4-(2,3,5,6-tetrafluoro-4-(2-hydroxypropan-2-yl)phenoxy)butan-2-yl)-3-azabicyclo[3.1.0]hexane-2-carboxamide]", "values": [
      {"measurement": "EC50", "setting": "SARS-CoV-2; [6]", "result": 39.8, "unit": "nM"},
      {"measurement": "solubility kinetic at 24 h", "setting": "physchem", "result": 77.2, "unit": "µM"},
      {"measurement": "hCTSB biochemical assay pIC50", "setting": "[1]", "result": "< 4.30"},
      {"measurement": "hCTSB activity (in words)", "setting": "[1]; biochemical assay", "result": "no hCTSL and hCTSB activity was observed"},
      {"measurement": "inhibition at 10 µM", "setting": "thrombin", "result": "4.1 ± 1.5", "unit": "%"},
      {"measurement": "IC50", "setting": "[2]", "result": 5010, "unit": "nM"},
      {"measurement": "IC50", "setting": "[3]", "result": "> 50100", "unit": "nM"},
      {"measurement": "inhibition at 10 µM", "setting": "Cathepsin D", "result": -23, "unit": "%"}
    ]},
    {"smiles": "COc1cccc2[nH]c(C(=O)N[C@@H](Cc3cccc(F)c3)C(=O)N[C@@H](C[C@@H]3CCNC3=O)C(=O)COc3c(F)c(F)c(CO)c(F)c3F)cc12", "note": "[compound 1, N-((S)-3-(3-Fluorophenyl)-1-oxo-1-(((S)-3-oxo-1-((S)-2-oxopyrrolidin-3-yl)-4-(2,3,5,6-tetrafluoro-4-(hydroxymethyl)phenoxy)butan-2-yl)amino)propan-2-yl)-4-methoxy-1H-indole-2-carboxamide]", "values": [
      {"measurement": "Peak area (%) by LCMS, mouse liver microsomal stability assay of 1", "setting": "[4]; 0 h", "result": 100, "unit": "%"},
      {"measurement": "Peak area (%) by LCMS, mouse liver microsomal stability assay of 1", "setting": "[4]; 5 min", "result": 86.9, "unit": "%"},
      {"measurement": "Peak area (%) by LCMS, mouse liver microsomal stability assay of 1", "setting": "[4]; 0.25 h", "result": 67.9, "unit": "%"},
      {"measurement": "Peak area (%) by LCMS, mouse liver microsomal stability assay of 1", "setting": "[4]; 0.5 h", "result": 48.7, "unit": "%"},
      {"measurement": "Peak area (%) by LCMS, mouse liver microsomal stability assay of 1", "setting": "[4]; 0.75 h", "result": 35.8, "unit": "%"},
      {"measurement": "Peak area (%) by LCMS, mouse liver microsomal stability assay of 1", "setting": "[4]; 1 h", "result": 32.6, "unit": "%"},
      {"measurement": "EC50", "setting": "SARS-CoV-2; Severe acute respiratory syndrome coronavirus 2, Vero C1008, read-out: EC50 (CPE)", "result": 130, "unit": "nM"},
      {"measurement": "EC50", "setting": "SARS-CoV-2; [6]", "result": 129, "unit": "nM"},
      {"measurement": "IC50", "setting": "SARS-CoV-2 M^pro", "result": 2.45, "unit": "nM"},
      {"measurement": "EC50", "setting": "MERS-CoV", "result": 5.25, "unit": "nM"},
      {"measurement": "solubility kinetic at 24 h", "setting": "physchem", "result": 18, "unit": "µM"},
      {"measurement": "hCTSB biochemical assay pIC50", "setting": "[1]", "result": 6.36},
      {"measurement": "inhibition at 10 µM", "setting": "thrombin", "result": "0.2 ± 1.1", "unit": "%"},
      {"measurement": "IC50", "setting": "[3]", "result": 83.2, "unit": "nM"},
      {"measurement": "half-life at 1 µM", "setting": "[5]", "result": 1.18, "unit": "min"},
      {"measurement": "EC50", "setting": "SARS-CoV", "result": 302, "unit": "nM"},
      {"measurement": "microsomal CLint at 1 µM", "setting": "in vitro", "result": 586, "unit": "µL/min/mg"},
      {"measurement": "remaining at 1 h, 1 µM", "setting": "in vitro", "result": 0, "unit": "%"},
      {"measurement": "inhibition at 10 µM", "setting": "Cathepsin D", "result": 8, "unit": "%"}
    ]}
  ]
}
